In US20260132128A1, “COMPOUND FOR RECOVERING P53 MUTATION FUNCTION AND USE THEREOF” (SHENZHEN ZHONGGE BIOLOGICAL TECHNOLOGY CO., LTD., priority 2022, published 2026):
pEC50: −log10 of the molar value. Marks after values point to notes of the source that are not given here.

Key:
p53 Y220C [1] = target: T1, p53 Y220C (Homo sapiens, UniProt P04637, P309S/R273H/Y220C); assay: DNA binding test (HTRF): binding of P53Y220C protein to DNA; format: biochemical; details: HTRF, activation of p53 Y220C (aa 94-312) binding to biotin DNA
T1 construct: a truncated mutant containing only amino acids 94-312 of p53; made in house; host or cells: E. coli
Protocol: (§1) In order to detect the ability of the aforementioned compounds to increase the binding of P53Y220C protein to DNA, the binding activity of p53 Y220C was measured by homogeneous time-resolved fluorescence (HTRF). Recombinant His-tagged p53 Y220C for HTRF measurement was expressed in bacteria E. coli. The recombinant protein was a truncated mutant containing only amino acids 94-312 of p53, and its sequence was […] […] VEGNLR […] TFRh[…] […]. The sense strand of the DNA double strand was 5′-[…]-3′, with a biotin tag at the 5′ end for activity assay, and the antisense strand was 5′-[…]-3′ 40 mL of assay buffer (20 mM Tris HCL, pH 7.5, 50 mM NaCl, 2 mM MgCl2, 0.02% Tween 20, 0.01% BSA, 1 mM DTT) was prepared. 10 mM compound was prepared and subjected to 3-fold dilution to obtain 10 dose gradient dilutions of the compound. 20 nL of the compound was added to a 384-well assay plate (PerkinElmer 6007299) using an Echo 655 Liquid Handler. P53Y220C protein was dissolved in assay buffer to reach a final concentration of 150 nM, and 5 μL thereof was added to each well, and incubated at room temperature for 5 min. DNA was dissolved in assay buffer to reach a final concentration of 150 nM, and 5 μL thereof was added to each well, and incubated at room temperature for 15 min. Anti 6HIS-XL665 (Cisbio 61HISXLB) was dissolved in assay buffer to reach a final concentration of 20 nM, and 5 μL thereof was added to each well. Streptavidin-Eu cryptate (Cisbio 610SAKLA) was dissolved in assay buffer to reach a final concentration of 0.625 nM, and 5 μL thereof was added to each well, and incubated at 27° C. for 1 hour. The plate was then read for signal values on an Envision (PerkinElmer 2105-0020) plate reader at 665 nm and 615 nm, respectively. […] Activation rate={(A-C)/(C)}*100%, A=(signal value at 665 nm/signal value at 615 nm); C=average signal of negative control (wherein, negative control referred to 0.1% DMSO).

p53 Y220C [2] = target: T2, p53 Y220C (Homo sapiens, UniProt P04637, Y220C); assay: as above; format: biochemical; details: multiple ratio of EC50 of the compound to the reference compound, DNA binding test
T2 construct: a truncated mutant containing only amino acids 94-312 of p53; made in house; host or cells: E. coli
Protocol: as §1

NUGC-3 cells = assay: NUGC-3 cell proliferation assay (CTG); format: cell-based, human; details: for GI50: Homo sapiens, NUGC-3, 144 h, 6 days, CTG; for Compound GI50 (nM)/Reference compound GI50 (nM): multiple ratio of GI50 of the compound to the reference compound
Protocol: In order to detect the inhibitory effect of the aforementioned compounds on the proliferation ability of NUGC-3 cells, 250 NUGC-3 cells (Nanjing Cobioer Biosciences Co., Ltd., CBP60492) were seeded into a 384-well plate (Corning 3765), 35 μL per well, and incubated overnight in a constant temperature incubator at 37° C. and 5% CO2. Then, 40 nL of the compound was added to the 384-well plate using an Echo 655 Liquid Handler, with a maximum final concentration of 10 μM, 1:3 serial dilutions, and a total of 10 doses. The culture was performed at 37° C. and 5% CO2 for 6 days. The plate was taken out from the incubator and equilibrated at room temperature for 10 minutes. 20 μL of CTG (Promage G7572) was added to each well of the plate according to the platemap. The plate was centrifuged at 1000 rpm for 1 min. The lysis of cells was induced by mixing on a shaker for 2 min. The plate was centrifuged at 1000 rpm for 1 min. Incubation was performed at room temperature for 10 min to stabilize luminescence signals. Luminescence values were recorded by Envision (PerkinElmer 2105-0020). GraphPad 9.0 was used to fit the inhibition rate and compound concentration into a nonlinear regression curve (dose response-variable slope) to calculate GI50, inhibition rate={1−(A−B)/(C−B)}*100%, A=signal value of compound; B=average signal of blank control; C=average signal of negative control (wherein negative control was 0.1% DMSO).

| SMILES | pEC50 (p53 Y220C [1]) | Compound EC50 (nM)/Reference compound EC50 (nM) (p53 Y220C [2]) | GI50 (NUGC-3 cells) | Compound GI50 (nM)/Reference compound GI50 (nM) (NUGC-3 cells) |
| --- | --- | --- | --- | --- |
| CNC(=O)c1ccc(NCC#Cc2nc3c(NC4CCN(C(C)C)CC4F)cccn3c2CC(F)(F)F)c(OC)c1 (centres unmarked) [Compound 20] | 6.00 to 6.30 | C (C: EC50 of the compound≥3*EC50 of the reference compound) | 1000 to 5000 nM | C (C: GI50 of the compound ≥ 3 * GI50 of the reference compound) |
| CN1CCC(Nc2cccn3c(CC(F)(F)F)c(-c4nnc(CNC(=O)c5cnn(C6CCOC6)c5)s4)nc23)CC1 (centres unmarked) [Compound 22] | 6.30 to 7.00 | B (B: EC50 of the reference compound<EC50 of the compound≤3.0*EC50 of the reference compound) | ≥ 5000 nM | C (C: GI50 of the compound ≥ 3 * GI50 of the reference compound) |
| CN1CCC(Nc2cccn3c(CC(F)(F)F)c(-c4nnc(CNC(=O)c5cnn(Cc6ccccc6)c5)s4)nc23)CC1 [Compound 23] | 6.30 to 7.00 | B (B: EC50 of the reference compound<EC50 of the compound≤3.0*EC50 of the reference compound) | 1000 to 5000 nM | C (C: GI50 of the compound ≥ 3 * GI50 of the reference compound) |
| CN1CCC(Nc2cccn3c(CC(F)(F)F)c(-c4ncc(CNC(=O)c5ccn(C(C)(C)C)c5)s4)nc23)CC1 [Compound 24] | 6.30 to 7.00 | C (C: EC50 of the compound≥3*EC50 of the reference compound) | 1000 to 5000 nM | C (C: GI50 of the compound ≥ 3 * GI50 of the reference compound) |
| CNC(=O)c1ccc(NCC#Cc2nc3c(NC4CCC(C)(O)CC4)cccn3c2CC(F)(F)F)c(OC)c1 (centres unmarked) [Compound 25] | 6.30 to 7.00 | C (C: EC50 of the compound≥3*EC50 of the reference compound) | ≥ 5000 nM | C (C: GI50 of the compound ≥ 3 * GI50 of the reference compound) |
| Cc1cc[nH]c1C(=O)NCC#Cc1nc2c(NC3CCN(C)CC3)cccn2c1CC(F)(F)F [Compound 28] | 6.00 to 6.30 | C (C: EC50 of the compound≥3*EC50 of the reference compound) |  | C (C: GI50 of the compound ≥ 3 * GI50 of the reference compound) |
| COc1cc(C(=O)NC2CCOCC2)ccc1NCC#Cc1nc2c(NC3CCN(C)CC3)cccn2c1CC(F)(F)F [Compound 29] | 6.30 to 7.00 | C (C: EC50 of the compound≥3*EC50 of the reference compound) | 1000 to 5000 nM | C (C: GI50 of the compound ≥ 3 * GI50 of the reference compound) |
| COCCNC(=O)c1ccc(NCC#Cc2nc3c(NC4CCN(C)CC4)cccn3c2CC(F)(F)F)c(OC)c1 [Compound 30] | 6.30 to 7.00 | C (C: EC50 of the compound≥3*EC50 of the reference compound) | 1000 to 5000 nM | C (C: GI50 of the compound ≥ 3 * GI50 of the reference compound) |
| CNC(=O)c1ccc(NCC#Cc2nc3c(NC4CCC(N(C)[C@@H]5CCOC5)CC4)cccn3c2CC(F)(F)F)c(OC)c1 (some centres unmarked) [Compound 33] | 6.30 to 7.00 | C (C: EC50 of the compound≥3*EC50 of the reference compound) |  | C (C: GI50 of the compound ≥ 3 * GI50 of the reference compound) |
| CNC(=O)c1ccc(NCC#Cc2nc3c(NC4CCC(N5CC6CCC(C5)O6)CC4)cccn3c2CC(F)(F)F)c(OC)c1 (centres unmarked) [Compound 34] | 6.30 to 7.00 | C (C: EC50 of the compound≥3*EC50 of the reference compound) |  | C (C: GI50 of the compound ≥ 3 * GI50 of the reference compound) |

Further lines, with some results ahead:

| pEC50 (p53 Y220C [1]) | SMILES | Compound EC50 (nM)/Reference compound EC50 (nM) (p53 Y220C [2]) | GI50 (NUGC-3 cells) | Compound GI50 (nM)/Reference compound GI50 (nM) (NUGC-3 cells) |
| --- | --- | --- | --- | --- |
| 6.30 to 7.00 | CNC(=O)c1ccc(NCC#Cc2nc3c(N[C@@H]4CCN(CCOC)C[C@@H]4F)cccn3c2CC(F)(F)F)c(OC)c1 [Compound 21] | C (C: EC50 of the compound≥3*EC50 of the reference compound) | 1000 to 5000 nM | C (C: GI50 of the compound ≥ 3 * GI50 of the reference compound) |
| > 7.00 | CNC(=O)c1cc(OC)c(NCC#Cc2nc3c(N[C@H]4CC[C@H](N5CC6(COC6)C5)CC4)cccn3c2CC(F)(F)F)cc1F [Compound 27] | B (B: EC50 of the reference compound<EC50 of the compound≤3.0*EC50 of the reference compound) |  | C (C: GI50 of the compound ≥ 3 * GI50 of the reference compound) |
| > 7.00 | CNC(=O)c1ccc(NCC#Cc2nc3c(NC4CC[C@@H](N5CCC5)C[C@@H]4F)cccn3c2CC(F)(F)F)c(OC)c1 (some centres unmarked) [Compound 40] | B (B: EC50 of the reference compound<EC50 of the compound≤3.0*EC50 of the reference compound) | < 1000 nM | B (B: GI50 of the reference compound < GI50 of the compound ≤ 3.0 * GI50 of the reference compound) |
| > 7.00 | CCNC(=O)c1ccc(NCC#Cc2nc3c(N[C@@H]4CC[C@@H](N5CC6(COC6)C5)C[C@@H]4F)cccn3c2CC(F)(F)F)c(OC)c1 [Compound 50] | A (A: EC50 of the compound≤EC50 of the reference compound) |  | C (C: GI50 of the compound ≥ 3 * GI50 of the reference compound) |
| > 7.00 | COc1cc(C(=O)N2CCC2)ccc1NCC#Cc1nc2c(N[C@@H]3CC[C@@H](N4CC5(COC5)C4)C[C@@H]3F)cccn2c1CC(F)(F)F [Compound 51] | A (A: EC50 of the compound≤EC50 of the reference compound) |  | C (C: GI50 of the compound ≥ 3 * GI50 of the reference compound) |
| > 7.00 | COCCNC(=O)c1ccc(NCC#Cc2nc3c(N[C@@H]4CC[C@@H](N5CC6(COC6)C5)C[C@@H]4F)cccn3c2CC(F)(F)F)c(OC)c1 [Compound 52] | A (A: EC50 of the compound≤EC50 of the reference compound) |  | C (C: GI50 of the compound ≥ 3 * GI50 of the reference compound) |
| > 7.00 | [2H]C([2H])([2H])NC(=O)c1ccc(NCC#Cc2cc3c(NC4CCC(N5CC6(COC6)C5)CC4F)cccn3c2CC(F)(F)F)c(OC2CC2)c1 (centres unmarked) [Compound 76d] | A (A: EC50 of the compound≤EC50 of the reference compound) | < 1000 nM | A (A: GI50 of the compound ≤ GI50 of the reference compound) |
| > 7.00 | [2H]C([2H])([2H])NC(=O)c1ccc(NCC#Cc2cc3c(NC4CCC(N5CC6(COC6)C5)CC4F)cccn3c2CC(F)(F)F)c(OCF)c1 (centres unmarked) [Compound 78d] | A (A: EC50 of the compound≤EC50 of the reference compound) | < 1000 nM | A (A: GI50 of the compound ≤ GI50 of the reference compound) |
